The test system of experiment [1] is Myzus persicae (green peach aphid). As to the kind of experiment: Example B1: activity against Myzus persicae, sprayed sunflower leaf discs (feeding/residual contact, preventive). Particulars: foliar, 144 h, read-out: activity (mortality).
Experiment [2] shares this test system. The experiment can be described thus: Example B17: activity against Myzus persicae on sprayed pepper plants (feeding/residual contact). Particulars: 144 h, infested pepper plants sprayed, 6 days. It is filed as in vivo.
Experiment [3] has as its system Bemisia tabaci (tobacco white fly). As to the kind of experiment: Example B7: activity against Bemisia tabaci, sprayed bean plants (larvicide, contact/feeding). It counts as in vivo. Particulars: 504 h, bean plants with N-2 nymphs sprayed, three weeks, read-out: activity (efficacy, number of emerged adults). The essentials: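 After a 4-day egg-laying period and 7 further days, bean plants bearing hatched N-2 nymphs were sprayed with test solutions (2 replicates). Emerged adults were counted three weeks later; efficacy was derived by comparison with untreated samples.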

Experiment [4] relates to Myzus persicae (green peach aphid). As to the kind of experiment: Example B13: drench activity against Myzus persicae, pea seedlings in field soil. The settings on record: 168 h, read-out: drench activity (mortality).
Experiment [5] has as its system Plutella xylostella (diamond back moth). As to the kind of experiment: Example B5: activity against Plutella xylostella, artificial diet in microtiter plate (larvicide, preventive). It counts as in vivo. The settings on record: 120 h, L2 larvae, 5 days, read-out: activity (larval mortality, antifeedant, growth regulation). The method, then:
Activity Against Plutella xylostella (Diamond Back Moth)
(Larvicide, Feeding/Residual Contact Activity, Preventive)
24-well microtiter plate (MTP) with artificial diet is treated with test solutions by pipetting. After drying, the MTP's are infested with larvae (L2)(10-15 per well). After an incubation period of 5 days, samples are checked for larval mortality, antifeedant and growth regulation.

Experiment [6] deals with Aphis Craccivora (cowpea aphid). As to the kind of experiment: Example B10: activity against Aphis craccivora, pea seedling roots in test solution (systemic/feeding). It counts as in vivo. Particulars: 144 h, roots of infested pea seedlings in test solution, 6 days. An excerpt: (§1) Activity Against Aphis Craccivora (Cowpea Aphid)
(Mixed Population, Systemic/Feeding)

Experiment [7] shares this test system. The experiment can be described thus: Example B11: translaminar activity against Aphis craccivora on French bean leaves. It is filed as in vivo. Particulars: 120 h, upper leaf side painted, aphids on lower side, 5 days. On the procedure: Translaminar Activity Against Aphis Craccivora (Cowpea Aphid)
French bean leaves (Phaseolus vulgaris) are infested with about 20 mixed age individuals on the lower leaf side using clip cages. 1 day after the infestation, the upper side of the leaves is treated with the test solution by painting. 5 days later, samples are checked for mortality.

For experiment [8] the test system is unchanged. The experiment can be described thus: Example B9: activity against Aphis craccivora, sprayed pea seedlings (contact/feeding). It counts as in vivo. Particulars: 144 h, infested pea seedlings sprayed, 6 days.
Description: as §1
(Mixed Population, Contact/Feeding)
6 days after treatment, samples are checked for mortality.

Experiment [9] deals with Myzus persicae (green peach aphid). The experiment can be described thus: Example B2: activity against Myzus persicae, pea seedling roots in test solution (systemic/feeding, curative). Particulars: 144 h, read-out: activity (mortality).
In experiment [10] the test system is Nilaparvata lugens (brown rice planthopper). As to the kind of experiment: Example B8: activity against Nilaparvata lugens, sprayed rice seedlings (larvicide, feeding/contact). The settings on record: in Oryza sativa, read-out: activity (mortality, growth regulation, effects on F1 generation).
The test system of experiment [11] is Aonidiella Aurantii (red scale). The experiment can be described thus: Example B12: activity against Aonidiella aurantii, dipped potato tubers. It is filed as in vivo. The settings on record: 6-8 weeks after application, read-out: activity (number of crawlers of the next generation). An excerpt:
Activity Against Aonidiella Aurantii (Red Scale)
Treatment of potato tubers by dipping the in the test solution. One day later, tubers are infested with about 50 crawlers. 6-8 weeks after application samples are checked for the number of crawlers of the next generation (compared to the non treated samples).

For experiment [12], the system named is Thrips tabaci (onion thrips). As to the kind of experiment: Example B3: activity against Thrips tabaci, sprayed sunflower leaf discs (feeding/residual contact, preventive). The settings on record: foliar, 144 h, mixed population, 6 days. It counts as in vivo. The text has this: Activity Against Thrips tabaci (Onion Thrips)
(Mixed Population, Feeding/Residual Contact Activity, Preventive)

Experiment [13] has as its system Tetranychus urticae (two-spotted spider mite). As to the kind of experiment: Example B4: activity against Tetranychus urticae, sprayed bean leaf discs (feeding/residual contact, preventive). Particulars: foliar, 192 h, read-out: activity (egg, larval and adult mortality).
Experiment [14] deals with Frankliniella occidentalis (western flower thrips). As to the kind of experiment: Example B6: activity against Frankliniella occidentalis, bean leaf discs or bean plants. It is filed as in vivo. The settings on record: foliar, 6 days (leaf discs) or 14 days (plants) after infestation, read-out: activity (reduction of treated population). The method, then:
Activity Against Frankliniella occidentalis (Western Flower Thrips)
Bean leaf discs on agar in petri dishes or bean plants in a spray chamber are treated with diluted test solutions. After drying leaf discs are cut and placed in plastic cups on the surface of an agar layer and infested with mixed population. 6 days (leaf discs) or 14 days (plants) after the infestation, samples are checked for reduction of treated population and compared to the non treated population.

From patent US20110224079A1, “SPIROHETEROCYCLIC N-OXYAMIDES AS PESTICIDES” (SYNGENTA CROP PROTECTION LLC, priority 2008, published 2011) come the findings set out here.

As to `CCOC(=O)OC1=C(c2cc(C)ccc2C)C(=O)N(OCOC)C12CCN(OC)CC2` [P1.2, Carbonic acid 3-(2,5-dimethyl-phenyl)-8-methoxy-1-methoxy-methoxy-2-oxo-1,8-diaza-spiro[4.5]dec-3-en-4-yl ester ethyl ester], the mortality at 400 ppm in experiment [1], in experiment [5], in experiment [6], in experiment [7], in [8] and in [9] was over 80% each time. In experiment [10], the mortality at 400 ppm was over 80%. In addition, the mortality at 200 ppm in [2] is at least 80%. For the same compound, the pest or weed control at 200 ppm in experiment [3] was over 80%. The mortality at 25 ppm in experiment [4] was over 80%.

As to `CCOC(=O)OC1=C(c2c(C)cc(C)cc2C)C(=O)N(OC2CCCO2)C12CCN(OC)CC2` (centres unmarked) [P1.9, Carbonic acid ethyl ester 8-methoxy-2-oxo-1-(tetrahydro-furan-2-yloxy)-3-(2,4,6-trimethyl-phenyl)-1,8-diaza-spiro[4.5]dec-3-en-4-yl ester], the mortality at 400 ppm in [1], in experiment [5], in experiment [6], in experiment [7], in [9] and in experiment [12] was over 80% in each case. Moreover, the mortality at 400 ppm in experiment [13] and in experiment [10] was over 80% in each case. In addition, the mortality at 200 ppm in [2] was at least 80%. Further, the pest or weed control at 200 ppm in experiment [11] and in experiment [3] was over 80% in each case. For the same compound, in experiment [4], the mortality at 25 ppm was over 80%. In [14], the pest or weed control at 400 ppm was over 80%.

`C=CCON1C(=O)C(c2c(C)cc(C)cc2C)=C(OC(=O)OCC)C12CCN(OC)CC2` [P1.17]: the mortality at 200 ppm in experiment [2] was at least 80%. In addition, the pest or weed control at 200 ppm in [11] and in experiment [3] was over 80% each time. The mortality at 25 ppm in experiment [4] is over 80%. The mortality at 400 ppm in [6], in experiment [7], in [8], in experiment [9], in experiment [13] and in experiment [10] was over 80% in each case.

For the compound `CCOC(=O)OC1=C(c2c(C)cc(Br)cc2C)C(=O)N(OCOC)C12CCN(OC)CC2` [P1.19], the mortality at 400 ppm in experiment [1], in experiment [5], in experiment [7], in [9] and in experiment [10] was over 80% each time. Further, the mortality at 200 ppm in [2] was at least 80%. Moreover, the pest or weed control at 200 ppm in experiment [11] was over 80%. Also, the mortality at 25 ppm in experiment [4] is over 80%.

For `CCOC(=O)OC1=C(c2c(C)cccc2C)C(=O)N(OC)C12CCN(OC)CC2` [P1.74], the mortality at 400 ppm in experiment [1], in [5], in experiment [9], in experiment [12] and in experiment [13] was over 80% in each case.

In the case of `CON1CCC2(CC1)C(O)=C(c1c(C)cc(C)cc1C)C(=O)N2O` [P2.4, 1,4-Dihydroxy-8-methoxy-3-(2,4,6-trimethyl-phenyl)-1,8-diaza-spiro[4.5]dec-3-en-2-one], the mortality at 400 ppm in [1], in experiment [5], in experiment [9], in [13] and in experiment [10] was over 80% in each case. In addition, the pest or weed control at 200 ppm in [3] is over 80%. For the same compound, the mortality at 25 ppm in [4] is over 80%.

For the compound `COCCON1C(=O)C(c2c(C)cc(C)cc2C)=C(O)C12CCN(OC)CC2` [P2.5], the mortality at 400 ppm in experiment [1], in experiment [6], in experiment [7], in experiment [9], in experiment [13] and in experiment [10] was over 80% throughout. In addition, the pest or weed control at 200 ppm in experiment [11] and in experiment [3] was over 80% throughout. In addition, the mortality at 25 ppm in experiment [4] was over 80%.

For `CON1CCC2(CC1)C(O)=C(c1c(C)cc(C)cc1C)C(=O)N2OC` [P2.7], the mortality at 400 ppm in experiment [1], in [7], in [8], in experiment [9], in experiment [12] and in [10] was over 80% in each case. In [2], the mortality at 200 ppm is at least 80%. Moreover, the pest or weed control at 200 ppm in experiment [11] and in experiment [3] was over 80% in each case. In addition, the mortality at 25 ppm in experiment [4] was over 80%.

Consider `C#CCON1C(=O)C(c2c(C)cc(C)cc2C)=C(O)C12CCN(OC)CC2` [P2.8, 4-Hydroxy-8-methoxy-1-prop-2-ynyloxy-3-(2,4,6-trimethyl-phenyl)-1,8-diaza-spiro[4.5]dec-3-en-2-one], for which the mortality at 400 ppm in [1], in [6], in experiment [7], in experiment [9], in experiment [13] and in experiment [10] was over 80% each time. In experiment [2], the mortality at 200 ppm is at least 80%. The pest or weed control at 200 ppm in experiment [11] and in experiment [3] was over 80% each time. In addition, the mortality at 25 ppm in experiment [4] is over 80%.

`COCON1C(=O)C(c2c(C)cc(Br)cc2C)=C(O)C12CCN(OC)CC2` [P2.14, 3-(4-bromo-2,6-dimethyl-phenyl)-4-hydroxy-8-methoxy-1-methoxymethoxy-1,8-diaza-spiro[4.5]dec-3-en-2-one]: the mortality at 400 ppm in [1], in experiment [6], in [9], in experiment [12], in experiment [13] and in [10] was over 80% in each case. Further, the pest or weed control at 200 ppm in experiment [11] and in experiment [3] was over 80% throughout. In addition, the mortality at 25 ppm in experiment [4] is over 80%.

For the compound `CON1CCC2(CC1)C(O)=C(c1c(C)cc(C)cc1C)C(=O)N2OC1CCCO1` (centres unmarked) [P2.18, 4-Hydroxy-8-methoxy-1-(tetrahydro-furan-2-yloxy)-3-(2,4,6-trimethyl-phenyl)-1,8-diaza-spiro[4.5]dec-3-en-2-one], the mortality at 400 ppm in [1], in experiment [6], in experiment [7], in experiment [9], in [12] and in [13] was over 80% in each case. Besides, the mortality at 400 ppm in experiment [10] is over 80%. In [2], this compound came in with a mortality at 200 ppm of at least 80%. Besides, the pest or weed control at 200 ppm in experiment [11] and in experiment [3] was over 80% throughout. Further, the mortality at 25 ppm in experiment [4] was over 80%.

`CON1CCC2(CC1)C(O)=C(c1cc(C)c(C)cc1Cl)C(=O)N2OC1CCCO1` (centres unmarked) [P2.63] displayed a mortality at 200 ppm in experiment [2] of at least 80%. Moreover, the mortality at 400 ppm in experiment [5] is over 80%.
